Drawing on patent publication US20230151014A1 (Repare Therapeutics Inc., priority 2020, published 2023), this text covers IC50 for 26 compounds.

By IC50 is commonly meant the concentration that gives 50% inhibition.

This test concerns the target T1, recombinant human Myt1 (Homo sapiens, UniProt Q99640).
T1 construct: full length PKMYT1 recombinant human protein expressed in insect cells
T1 sequence (Q99640 1-499): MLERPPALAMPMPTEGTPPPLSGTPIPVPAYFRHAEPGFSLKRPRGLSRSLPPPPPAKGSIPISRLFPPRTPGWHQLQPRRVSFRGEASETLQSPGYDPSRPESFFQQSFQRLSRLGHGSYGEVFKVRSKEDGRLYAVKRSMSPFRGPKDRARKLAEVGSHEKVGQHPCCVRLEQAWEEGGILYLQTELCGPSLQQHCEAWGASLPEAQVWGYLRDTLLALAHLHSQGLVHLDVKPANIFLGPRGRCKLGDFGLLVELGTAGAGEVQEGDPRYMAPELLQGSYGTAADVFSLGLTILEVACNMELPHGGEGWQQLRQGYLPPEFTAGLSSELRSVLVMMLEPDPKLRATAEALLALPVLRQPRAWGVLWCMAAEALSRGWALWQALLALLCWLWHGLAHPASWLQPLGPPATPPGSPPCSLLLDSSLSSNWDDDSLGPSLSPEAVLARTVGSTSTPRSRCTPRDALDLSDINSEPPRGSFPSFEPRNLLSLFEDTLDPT
As to the kind of experiment: Myt1 enzymatic assay (ADP-Glo kinase assay, IC50 and % max inhibition). In kind it is biochemical. Conditions: recombinant human Myt1 18 nM, ATP 10 μM. The procedure:
Detection of Myt1 kinase activity utilized a recombinant human Myt1 kinase assay measuring the hydrolysis of ATP using a commercially available ADP-Glo Assay (ADP-Glo™ Kinase Assay from Promega, 10 000 assays, #V9102). […] After this, 5 μL of compounds (diluted in reaction buffer to 0.5% DMSO) was added to the microplate and the plate was spun briefly and incubated at 22° C. for 15 minutes. Ultra-Pure Adenosine Triphosphate (ATP) solution (ADP-Glo kit from Promega) was diluted in reaction buffer and 5 μL was added to the microplate, spun down briefly and incubated for 60 minutes at 30° C. […] After the 60-minute incubation, 15 μL of ADP-Glo reagent was added and the plate was spun briefly and sealed and incubated in the dark for 40 minutes at 22° C. […] Luminescence was read using the Envision (250 ms integration). The IC50 and the % max inhibition were calculated for each inhibitor compound tested.
For orientation: ADP-Glo turns the ADP formed in a reaction into a luminescent signal.

In the case of `Cc1ccc(O)c(C)c1-n1c(N)c(C(N)=O)c2nc(-c3nc(C)c(C)s3)cnc21` [Compound 32], the IC50 was < 10 nM.
Then `Cc1ccc(O)c(C)c1-n1c(N)c(C(N)=O)c2nc(-c3ccccn3)cnc21` [Compound 34], with < 10 nM.
Then `Cc1ccc(O)c(C)c1-n1c(N)c(C(N)=O)c2nc(-c3ccnc(C(F)(F)F)c3)cnc21` [Compound 35, 6-amino-5-(3-hydroxy-2,6-dimethyl-phenyl)-2-[2-(trifluoromethyl)-4-pyridyl]pyrrolo[2,3-b]pyrazine-7-carboxamide], with < 10 nM.
With `Cc1ccc(O)c(C)c1-n1c(N)c(C(N)=O)c2nc(-c3cc(C(F)(F)F)ccn3)cnc21` [Compound 36] the figure was 14 nM; with `Cc1ccc(O)c(C)c1-n1c(N)c(C(N)=O)c2nc(-c3cncs3)cnc21` [Compound 37], < 10 nM.
For the compound `Cc1ccc(O)c(C)c1-n1c(N)c(C(N)=O)c2nc(-c3cnccn3)cnc21` [Compound 38], the IC50 was < 10 nM.
Then `Cc1ccc(O)c(C)c1-n1c(N)c(C(N)=O)c2nc(-c3ccns3)cnc21` [Compound 41], with < 10 nM; and `Cc1c(O)ccc(Cl)c1-n1c(N)c(C(N)=O)c2nc(-c3nccs3)cnc21` [Compound 42], with < 10 nM; and `CNC(=O)C1CCN(c2cnc3c(n2)c(C(N)=O)c(N)n3-c2c(C)ccc(O)c2C)CC1` [Compound 46, 6-amino-5-(3-hydroxy-2,6-dimethyl-phenyl)-2-[4-(methylcarbamoyl)-1-piperidyl]pyrrolo[2,3-b]pyrazine-7-carboxamide], with < 10 nM.
Then `Cc1ccc(O)c(C)c1-n1c(N)c(C(N)=O)c2nc(-c3ccc(Cl)cn3)cnc21` [Compound 49], with < 10 nM; and `Cc1ccc(O)c(C)c1-n1c(N)c(C(N)=O)c2nc(N3CCC(C)(O)CC3)cnc21` [Compound 52], with 10 nM.
Then `Cc1ccc(O)c(C)c1-n1c(N)c(C(N)=O)c2nc(N3CCN(C)CC3)cnc21` [Compound 53], with 16 nM; and `Cc1ccc(O)c(C)c1-n1c(N)c(C(N)=O)c2nc(-c3ccncn3)cnc21` [Compound 57], with < 10 nM; and `Cc1ccc(O)c(C)c1-n1c(N)c(C(N)=O)c2nc(C3=CCC(C(=O)N(C)C)CC3)cnc21` (centres unmarked) [Compound 58], with < 10 nM.
Consider `Cc1ccc(O)c(C)c1-n1c(N)c(C(N)=O)c2nc(N3CCOC(C)C3)cnc21` (centres unmarked) [Compound 59], for which the IC50 amounted to 12 nM.
Then `Cc1ccc(O)c(C)c1-n1c(N)c(C(N)=O)c2nc(-c3ncco3)cnc21` [Compound 60], with 10 nM; and `Cc1ccc(-c2cnc3c(n2)c(C(N)=O)c(N)n3-c2c(C)ccc(O)c2C)nc1` [Compound 61], with < 10 nM; and `Cc1ccc(O)c(C)c1-n1c(N)c(C(N)=O)c2nc(-c3ccc(F)cn3)cnc21` [Compound 64], with < 10 nM.
For `Cc1ccc(O)c(C)c1-n1c(N)c(C(N)=O)c2nc(-c3c[nH]cn3)cnc21` [Compound 65], the IC50 is < 10 nM.
Then `Cc1ccc(O)c(C)c1-n1c(N)c(C(N)=O)c2nc(N3CCNC(=O)C3)cnc21` [Compound 66], with 10 nM.
Then `Cc1ccc(O)c(C)c1-n1c(N)c(C(N)=O)c2nc(N3CCNCC3)cnc21` [Compound 67], with 14 nM; and `Cc1ccc(O)c(C)c1-n1c(N)c(C(N)=O)c2nc(-c3ccn(C)n3)cnc21` [Compound 72], with 11 nM; and `Cc1ccc(O)c(C)c1-n1c(N)c(C(N)=O)c2nc(N3CCC(N4CCOCC4)CC3)cnc21` [Compound 74], with 14 nM.
For the compound `Cc1ccc(O)c(C)c1-n1c(N)c(C(N)=O)c2nc(N3CCS(=O)(=O)CC3)cnc21` [Compound 75], the IC50 was found to be 11 nM.
With `Cc1ccc(O)c(C)c1-n1c(N)c(C(N)=O)c2nc(-c3cn(C)cn3)cnc21` [Compound 76] the figure was < 10 nM; with `Cc1ccc(O)c(C)c1-n1c(N)c(C(N)=O)c2nc(N3CCC(C(=O)N(C)C)CC3)cnc21` [Compound 80], < 10 nM.
